The record followed here is ChEMBL document CHEMBL5226315, “Strategies for Targeting Serine/Threonine Protein Phosphatases with Small Molecules in Cancer” (J Med Chem, 2021).

Test [1] relates to NCI-H358. Briefly: Anticancer activity against human NCI-H358 cells. Format: functional.
Test [2] can be described thus: Inhibition of rabbit skeletal muscle PP1 using [3H]-phosphohistone as substrate. Further details: species or system Oryctolagus cuniculus.
The nature of test [3]: Inhibition of PP7 (unknown origin). Further details: species or system Homo sapiens.
A short description of test [4]: Inhibition of rabbit skeletal muscle PP2A using [3H]-phosphohistone as substrate. Details: species or system Oryctolagus cuniculus.
Test [5] has as its target T1, Serine/threonine-protein phosphatase 5 (Homo sapiens, UniProt P53041).
T1 sequence (P53041 whole entry): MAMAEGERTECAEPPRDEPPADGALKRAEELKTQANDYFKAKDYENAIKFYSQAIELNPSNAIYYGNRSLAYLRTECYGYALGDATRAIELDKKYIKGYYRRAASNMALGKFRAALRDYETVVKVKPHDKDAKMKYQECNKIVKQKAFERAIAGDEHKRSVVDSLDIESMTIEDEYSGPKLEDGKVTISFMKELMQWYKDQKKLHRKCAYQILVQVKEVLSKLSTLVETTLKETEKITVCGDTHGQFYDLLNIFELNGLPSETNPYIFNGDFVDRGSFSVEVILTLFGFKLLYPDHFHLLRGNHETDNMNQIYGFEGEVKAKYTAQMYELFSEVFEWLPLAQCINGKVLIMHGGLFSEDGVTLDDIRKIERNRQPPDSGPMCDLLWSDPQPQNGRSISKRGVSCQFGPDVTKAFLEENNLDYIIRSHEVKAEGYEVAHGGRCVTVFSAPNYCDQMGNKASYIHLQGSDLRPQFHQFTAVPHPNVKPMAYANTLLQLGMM
Briefly: Inhibition of PP5 (unknown origin).

Test [6] is described as follows: Inhibition of porcine testis PP4. Details: species or system Sus scrofa.
Test [7] has as its target T2, Serine/threonine-protein phosphatase 6 catalytic subunit (Homo sapiens, UniProt O00743).
T2 sequence (O00743 whole entry): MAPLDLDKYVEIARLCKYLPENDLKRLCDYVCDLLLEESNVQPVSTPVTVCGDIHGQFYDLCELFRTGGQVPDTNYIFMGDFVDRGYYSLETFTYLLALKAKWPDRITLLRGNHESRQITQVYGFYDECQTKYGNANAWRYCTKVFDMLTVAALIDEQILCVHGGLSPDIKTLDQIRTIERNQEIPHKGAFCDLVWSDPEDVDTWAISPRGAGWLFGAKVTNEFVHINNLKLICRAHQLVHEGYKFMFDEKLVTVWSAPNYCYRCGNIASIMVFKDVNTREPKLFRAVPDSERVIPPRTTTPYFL
Briefly: Inhibition of PP6 (unknown origin).

A short description of test [8]: Inhibition of PP7 (unknown origin) using [3H]-phosphohistone as substrate by liquid scintillation counting analysis. Further details: species or system Homo sapiens.
Test [9] can be described thus: Inhibition of PP2A (unknown origin) using [3H]-phosphohistone as substrate by liquid scintillation counting analysis. Further details: species or system Homo sapiens.
A short description of test [10]: Inhibition of PP3 (unknown origin) using [3H]-phosphohistone as substrate by liquid scintillation counting analysis. Details: species or system Homo sapiens.
Test [11] is described as follows: Inhibition of PP1 (unknown origin) using [3H]-phosphohistone as substrate by liquid scintillation counting analysis. Further details: species or system Homo sapiens.
Test [12] concerns the target T1, Serine/threonine-protein phosphatase 5. Briefly: Inhibition of PP5 (unknown origin) using [3H]-phosphohistone as substrate by liquid scintillation counting analysis.
A short description of test [13]: Inhibition of PP4 (unknown origin) using [3H]-phosphohistone as substrate by liquid scintillation counting analysis. Details: species or system Homo sapiens.
The species entered for test [14] is Homo sapiens. Briefly: Activation of PP2A (unknown origin) at 1000 nM relative to control. The settings on record: filed as activator.
Test [15] deals with T3, Serine/threonine-protein phosphatase 5 (Homo sapiens) (UniProt P53041).
T3 sequence (whole entry): T1 sequence (P53041 whole entry)
Briefly: Activation of PP5 (unknown origin) assessed as fold increase in activity at > 100000 nM relative to control. The note with it: filed as activator.

Test [16] deals with T3, Serine/threonine-protein phosphatase 5 (Homo sapiens). Briefly: Inhibition of human full length PP5 expressed in Escherichia coli Rosetta gami2(DE3)pLysS at >1 x 10^6nM relative to control. The settings on record: dose > 1.0 10^6nM.
Test [17] can be described thus: Inhibition of PP1 (unknown origin). Further details: species or system Homo sapiens.
Test [18] deals with T4, Serine/threonine-protein phosphatase 2A catalytic subunit alpha isoform (Homo sapiens, UniProt P67775). Briefly: Inhibition of human PP2AC using [3H]-phosphohistone as substrate.
Test [19] deals with T1, Serine/threonine-protein phosphatase 5. Briefly: Activation of recombinant human PP5 (16 to 499 residues) Escherichia coli BL21 (DE3) using pNPP incubated for 60 mins.
The target is the same in test [20]. Briefly: Inhibition of human PP5 using [3H]-phosphohistone as substrate.
Test [21] deals with T2, Serine/threonine-protein phosphatase 6 catalytic subunit. Briefly: Inhibition of PP6 (unknown origin) using [3H]-phosphohistone as substrate by liquid scintillation counting analysis.
The nature of test [22]: Inhibition of porcine PP4 using [33P]-labelled substrate. Further details: species or system Sus scrofa.
Test [23] is described as follows: Inhibition of PP3 (unknown origin). Details: species or system Homo sapiens.
Test [24] deals with T4, Serine/threonine-protein phosphatase 2A catalytic subunit alpha isoform. Briefly: Inhibition of PP2A (unknown origin).
Test [25] in a line: Inhibition of PP3 activity in human Jurkat J77 cells assessed as dephosphorylation of substrate. Format: cell-based.
Test [26] in a line: Inhibition of PP4 (unknown origin). Details: species or system Homo sapiens.

Starred links: 1 amine or outer side, 2 acyl side, 3 side chain; linkers in the order of their positions; H or OH if unused. Positions of bridges follow the written chain, without caps; N, C: chain ends. Non-standard residues stand in square brackets, D forms with d. Residues, ends and D or L forms follow the SMILES beside them. Adda = CO[C@@H](Cc1ccccc1)[C@@H](C)/C=C(C)/C=C/[C@H](N[*:1])[C@H](C)C(=O)[*:2]; dAsp(3S-Me) = C[C@H](C(=O)[*:3])[C@@H](N[*:1])C(=O)[*:2]; d(γGlu) = O=C(O)[C@@H](CCC(=O)[*:2])N[*:1]; NMeDha = C=C(NC)C(=O)O

T4 sequence (P67775 whole entry, the tested form may be a part, canonical isoform): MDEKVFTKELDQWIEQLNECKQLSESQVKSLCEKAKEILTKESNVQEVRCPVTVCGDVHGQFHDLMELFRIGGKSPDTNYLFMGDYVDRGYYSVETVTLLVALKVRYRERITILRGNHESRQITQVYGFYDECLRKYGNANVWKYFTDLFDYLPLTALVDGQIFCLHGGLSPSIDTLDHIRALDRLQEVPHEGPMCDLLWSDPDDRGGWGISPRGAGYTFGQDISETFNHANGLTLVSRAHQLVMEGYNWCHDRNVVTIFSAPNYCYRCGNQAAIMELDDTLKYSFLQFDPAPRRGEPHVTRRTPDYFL

For the molecule `O=S(=O)(N[C@@H]1CCC[C@H](N2c3ccccc3Oc3ccccc32)[C@H]1O)c1ccc(OC(F)(F)F)cc1`, the GI50 in test [1] is on record as 5 10^3nM.
For the molecule `C=C1[C@@H](O)[C@@H]2O[C@]3(CC[C@H](/C=C/[C@H](C)[C@@H]4CC(C)=C[C@@]5(OC(C[C@@](C)(O)C(=O)O)CC[C@H]5O)O4)O3)CC[C@H]2O[C@@H]1[C@@H](O)C[C@H](C)[C@H]1O[C@@]2(CCCCO2)CC[C@H]1C` (some centres undefined), the 50% inhibitory concentration (IC50) (in general, the concentration at which inhibition is half-maximal) in test [2] is 0.23 nM; in [3], more than 1000 nM; in [4] it was 0.94 nM; in [5] it was 3.5 nM; in [6], 0.1 nM; in [7], 1 nM.
Take `C/C=C1/C(=O)N[C@H](OC(=O)O)[C@H](C)C(=O)N[C@@H](CCCNC(=N)N)C(=O)N[C@@H](/C=C/C(C)=C/[C@H](C)[C@H](Cc2ccccc2)OC)[C@H](C)C(=O)N[C@H](OC(=O)O)CCC(=O)N1C`: the IC50 was more than 1000 nM in test [8], 0.04 nM in test [9], more than 1000 nM in [10] and 1.7 nM in test [11].
Take `C=C/C(=C/C(=O)C[C@H](C)C[C@@H](C)CC[C@H](O)[C@H](C)C(=O)C[C@@H](O)[C@@H](C)[C@@H](C)OC(=O)C[C@@H](O)C1=C(C)C(=O)OC1=O)CC`: the IC50 in test [12] was 11.9 nM; in test [10], 17500 nM; in [11], 0.4 nM; in test [13], 44.4 nM.
Consider `CCCCCCCCc1ccc(CCC(N)(CO)CO)cc1`, for which the Activity in test [14] amounted to 175%.
In the case of `COc1ccc(-c2nc(Cc3ccc(Cl)cc3)no2)cc1OC`, the fold change (FC) in [15] came to 4.
For the molecule `Nc1ccc(-c2nc3ccc(-c4nc5ccc(N)cc5[nH]4)cc3[nH]2)cc1`, in test [16], the inhibition (commonly the relative decrease from the control value, in per cent) was 40%.
As for `CN1CCN(C(=O)C2C(C(=O)O)C3CC[C@@H]2O3)CC1` (single isomer, unassigned), the IC50 turned out to be 2.4 nM in [17] and 400 nM in [18].
`CCCCC/C=C\C/C=C\C/C=C\C/C=C\CCCC(=O)O` [ARACHIDONIC ACID]: the half-maximal effective concentration (EC50) (as a rule, the concentration giving half of the maximal effect) in test [19] is 78000 nM.
In the case of `COC[C@@H]([C@H](O)[C@H](O)C(=O)NCC[C@H](C)c1nc(/C=C/C[C@@H]2O[C@]3(C[C@@H](O)[C@@H]2C)O[C@H]([C@H](C[C@H](O)[C@H](C)[C@H](O)[C@H](C)/C=C(C)/C(C)=C/C=C/C(C)=C\C#N)OC)[C@H](OP(=O)(O)O)C3(C)C)co1)N(C)C` [CALYCULIN A], the 50% inhibitory concentration (IC50) in [20] is 3 nM; in [21], 10 nM; in test [9], 1.5 nM; in [10] it was more than 1000 nM; in [18] it was 0.25 nM; in test [13], 0.2 nM.
Turning to `C[C@@]12C(=O)OC(=O)[C@]1(C)[C@H]1CC[C@@H]2O1` [CANTHARIDIN], the IC50 is 400 nM in test [20]; 1700 nM in test [17]; 50 nM in [22]; more than 500000 nM in test [23]; 160 nM in [24]; 600 nM in test [5]. Moreover, the midpoint of inhibition in test [7], the IC50, lay at 8000 nM.
For the molecule `O=C(O)CCCCCCCCCCCC[C@@H]1C=CCC1` [CHAULMOOGRIC ACID], the half-maximal effective concentration (EC50) in [19] was 130000 nM.
On to `C[C@@](O)(/C=C/[C@H]1CC=CC(=O)O1)[C@@H](C[C@@H](O)\C=C/C=C\C=C\CO)OP(=O)(O)O` [FOSTRIECIN], for which the IC50 is more than 10000 nM in [12], more than 100000 nM in test [10] and 3 nM in test [13].
Consider `C=C1C(=O)N[C@H](C)C(=O)N[C@@H](CC(C)C)C(=O)N[C@@H](C(=O)O)[C@H](C)C(=O)N[C@@H](CCCNC(=N)N)C(=O)N[C@@H](/C=C/C(C)=C/[C@H](C)[C@H](Cc2ccccc2)OC)[C@H](C)C(=O)N[C@@H](C(=O)O)CCC(=O)N1C` [MICROCYSTIN-LR] (R[Adda][d(γGlu)][NMeDha][dA]L[dAsp(3S-Me)]-OH; lactam N-7), for which the IC50 stood at 200 nM in test [23]; 10 nM in test [2]; 0.1 nM in test [4]; 1 nM in test [5]; 0.15 nM in test [6].
For `C=CC[C@@H]1/C=C(\C)C[C@H](C)C[C@H](OC)[C@H]2O[C@@](O)(C(=O)C(=O)N3CCCC[C@H]3C(=O)O[C@H](/C(C)=C/[C@@H]3CC[C@@H](O)[C@H](OC)C3)[C@H](C)[C@@H](O)CC1=O)[C@H](C)C[C@@H]2OC` [TACROLIMUS ANHYDROUS], the IC50 in test [25] came out at 0.4 nM.
Turning to `CO[C@H]([C@H](O)CC(=O)[C@@H](C)[C@@H](O)CC[C@@H](C)[C@@H]1O[C@]2(CC[C@@H](C)[C@H](CC[C@H](C)C(C)=O)O2)CC[C@@H]1C)[C@H](OC(=O)C[C@@H](O)C1=C(C)C(=O)OC1=O)C(C)C` [TAUTOMYCIN], the IC50 in test [23] is more than 1000 nM; in [9] it was 5.3 nM; in test [2] it was 0.038 nM; in [26], 0.4 nM; in test [5], 10 nM.
